From patent publication US20040254189A1, “Jnk inhibitors” (priority 2001, published 2004)

Columns and labels:
[1] = system: JNK; assay: JNK kinase assay on protein extract of treated RBL-2H3 cells with c-Jun(1-89) as substrate; format: cell-based, rat; conditions: 10^−5 to 10^−7 mol/l
Description: (§1) Rat basophilic leukemia 2H3 (RBL-2H3) cells (JCRB0023 from Health Science Research Resources Bank) were seeded in a 6-well plate or a 60 mm dish (0.5×10^6 cells/ml) and sensitized with the anti-DNP-IgE antibody (1:2000) at 37° C. for 90 minutes, and then washed twice with a glucose/PIPES buffer. After the RBL-2H3 cells were incubated at 37° C. for 15 minutes in the presence of Compound A or DMSO (at a final concentration of 0.1%), DNP-BSA (at a final concentration of 3 ng/ml) was added, and further incubation was performed for 10 minutes. The cells were then washed twice with PBS on ice, the cells were harvested with a scraper in a cell extraction buffer for western blot analysis or kinase assay, and incubated on ice for 15 minutes, and centrifuged (14,500 rpm, 4° C., 15 minutes). The resulting supernatant was recovered.
JNK Kinase Assay: The total protein extracted from the cells (250 μg) was incubated for 12 hours with gentle rocking with GST-c-Jun(1-89) sepharose beads (2 μg) at 4° C. After washing, a kinase buffer was used for replacement. ATP ([…]) was added to start the kinase reaction. After incubation was performed at 30° C. for 30 minutes, 10% SDS-PAGE was used for separation. The phosphorylated GST-c-Jun(1-89) was detected by a chemiluminescence technique using an anti-phospho-c-Jun antibody.

[2] = system: p38MAPK; assay: Western blot analysis of activated site-specific phosphorylation of p38MAPK in passively sensitized RBL-2H3 cells after antigen stimulation; format: cell-based, rat; conditions: ten minutes after antigen stimulation
Description: as §1
(§2) Western Blot Analysis: The supernatant of the total protein extracted from the cells was separated by 10% SDS-PAGE. The proteins and phosphorylated proteins were detected by a chemiluminescence technique using an anti-PLCγ-1[pY783] phosphospecific antibody, an anti-PLCγ antibody, an anti-active JNK (pTPpY) antibody, an anti-phospho-MAPK (ERK1/2)(Thr202/[…]) antibody, an anti-phospho-p38MAPK (Thr180/Tyr182) antibody, an anti-p44/42MAP kinase antibody, and an anti-JNK antibody.

[3] = system: PLCγ; assay: Western blot analysis of activated site-specific phosphorylation of PLCγ in passively sensitized RBL-2H3 cells after antigen stimulation; format: cell-based, rat; conditions: ten minutes after antigen stimulation
Description: as §1, §2

[4] = system: peritoneal mast cells; assay: Antigen stimulation-induced release of TNF-α from peritoneal mast cells of passively sensitized rat; format: cell-based; conditions: 10^−9 to 10^−5 mol/l, 60 minutes preincubation, two hours after DNP-BSA
Description: Female Wistar rats were intraperitoneally administered 2 ml of an anti-DNP-IgE antibody (diluted 250-fold), and killed by exsanguination after 48 hours. 20 ml of a physiological mast cells medium (MCM) was injected into the abdominal cavity, and the lavage was recovered. The lavage was centrifuged at 50×g for seven minutes at 4° C. and then washed twice with MCM. Cells were suspended in 1 ml of a heparin-free MCM at a concentration of 1.25×10^5 cells/mL, and then CaCl2 was added (at a final concentration of 1 mmol/L). The resulting mixture was incubated with Compound A or DMSO (at a final concentration of 0.1%) at 37° C. for 60 minutes, and then DNP-BSA (at a final concentration of 30 ng/mL) was added, and further incubation was performed for two hours. Thereafter, the supernatant was harvested and stored at −40° C. until the amount of TNF-A was measured. The amount of TNF-α was determined using a commercially available ELISA kit.

[5] = system: TNF-α; assay: Increase in the amount of TNF-α in ear tissue of IgE-passively sensitized mouse after antigen (DNFB) stimulation; format: in vivo; conditions: female BALB/c mice, p.o., eight hours after application of DNFB
Description: Female BALB/c mice were passively sensitized systemically by intravenous administration of 0.25 ml of a 20-fold diluted anti-DNP monoclonal antibody. On the following day, skin reactions were induced by applying 10 μl of a 0.15% dinitrofluorobenzene solution (DNFB diluted with a 4:1 mixture of acetone and olive oil) to each side of both ears of mice. Eight hours after the application of DNFB, both ears were cut off and homogenized in 400 μl of PBS using Polytron and then centrifuged (15,000 rpm, 15 minutes, 4° C.). The resulting supernatant was used as a sample. The amount of TNF-α was determined using a commercially available ELISA kit. The amount of proteins in the sample was also determined, and the amount of TNF-α was calculated per mg of protein. A preliminary test was performed in which an auricle sample was taken at certain intervals after the application of the antigen, and a time course of the amount of TNF-α was observed. The drug was orally administered one hour before the application of DNFB.

[6] = system: RBL-2H3 cells; assay: Western blot analysis of protein expression amount in RBL-2H3 cells; format: cell-based, rat; conditions: treatment with Compound A
Description: as §1, §2

[7] = system: JNK (JNK1 and JNK2); assay: Western blot analysis of activated site-specific phosphorylation of JNK in passively sensitized RBL-2H3 cells after antigen stimulation; format: cell-based, rat
Description: as §1, §2

[8] = system: ERKs; assay: Western blot analysis of activated site-specific phosphorylation of ERKs in passively sensitized RBL-2H3 cells after antigen stimulation; format: cell-based, rat; conditions: ten minutes after antigen stimulation
Description: as §1, §2

c1ccc(C(OC2CCN(CCCNc3ccc4ncnn4n3)CC2)c2ccccc2)cc1
melting point: 136 to 138 °C

Cc1c(C(C)(C)C(=O)O)nc2ccc(NCCCN3CCC(OC(c4ccccc4)c4ccccc4)CC3)nn12
melting point: 219 to 220 °C

O=C(O)/C=C/C(=O)O.c1ccc(C(OC2CCN(CCCCCCOc3ccc4nncn4n3)CC2)c2ccccc2)cc1
melting point: 144 to 146 °C

CC(C)(C)c1nnc2ccc(OCCCN3CCC(OC(c4ccccc4)c4ccccc4)CC3)nn12
melting point: 125 to 127 °C

CCOC(=O)C(C)(C)n1nc2ccc(NCCCN3CCC(OC(c4ccccc4)c4ccccc4)CC3)nn2c1=O.Cl
melting point: 162 °C

CC(C)(C)C(=O)OCOC(=O)C(C)(C)n1nc2ccc(NCCCN3CCC(OC(c4ccccc4)c4ccccc4)CC3)nn2c1=O
melting point: 162 °C

CC(C)(C(=O)O)c1cn2nc(NCCCN3CCC(OC(c4ccccc4)c4ccccc4)CC3)ccc2n1
melting point: 205 to 206 °C

CCOC(=O)CNC(=O)c1cn2nc(NCCCN3CCC(OC(c4ccccc4)c4ccccc4)CC3)ccc2n1.Cl.Cl
melting point: 205 °C

CCOC(=O)C(C)(C)c1cn2nc(NCCCN3CCC(NC(c4ccccc4)c4ccccc4)CC3)ccc2n1
melting point: 115 to 117 °C

c1ccc(C(OC2CCN(CCCCCCNc3ccc4nncn4n3)CC2)c2ccccc2)cc1 (hydrate or solvate)
melting point: 124 to 127 °C

CCOC(=O)c1nnc2ccc(NCCCN3CCC(OC(c4ccccc4)c4ccccc4)CC3)nn12 (hydrate or solvate)
melting point: 129 to 133 °C

O=C(O)c1nnc2ccc(NCCCN3CCC(OC(c4ccccc4)c4ccccc4)CC3)nn12 (hydrate or solvate)
melting point: 102 to 104 °C

O=c1[nH]nc2ccc(NCCCN3CCC(OC(c4ccccc4)c4ccccc4)CC3)nn12 (hydrate or solvate)
melting point: 156 to 170 °C

CC(C)(C(=O)O)n1nc2ccc(NCCCN3CCC(OC(c4ccccc4)c4ccccc4)CC3)nn2c1=O (hydrate or solvate)
melting point: 181 to 185 °C

CC(C)(C(=O)O)c1cn2nc(NCCCN3CCC(OC(c4ccccc4)c4ccccc4)CC3)ccc2n1.O.O (hydrate or solvate) [Compound A, 2-[6-[3-[4-(diphenylmethoxy)piperidino]propylamino]imidazo[1,2-b]pyridazin-2-yl]-2-methylpropionic acid dihydrate]
melting point: 203 to 205 °C

CC(C)(C(=O)O)c1cn2nc(NCCCN3CCC(OC(c4ccccc4)c4ccccc4)CC3)ccc2n1.O.O [Compound A, 2-[6-[3-[4-(diphenylmethoxy)piperidino]propylamino]imidazo[1,2-b]pyridazin-2-yl]-2-methylpropionic acid dihydrate]
JNK activity of protein extract on c-Jun(1-89) substrate [1]: inhibited depending on the concentration
influence on activated site-specific phosphorylation of p38MAPK [2]: no influence
influence on activated site-specific phosphorylation of PLCγ [3]: no influence
effect on antigen stimulation-induced release of TNF-α [4]: inhibited the antigen stimulation-induced release of TNF-α in a concentration-dependent manner
effect on the increase in the amount of TNF-α in ear tissue ([5]; 0.1 to 10 mg/kg, one hour before DNFB): inhibited the increase in the amount of TNF-α in a dose-dependent manner
dose with significant inhibition of the increase in the amount of TNF-α ([5]; p<0.01 vs. control (Dunnett)): ≥ 1 mg/kg
expression amount of any other protein [6]: not influenced
effect on specific phosphorylation of JNK (JNK1 and JNK2) ([7]; 10^−5 to 10^−7 mol/l, ten minutes after antigen stimulation): inhibited the specific phosphorylation of JNK (JNK1 and JNK2) in a dose-dependent manner
selectivity for JNK activation among cascades activated depending on IgE ([7]; versus PLCγ, ERKs, p38MAPK in RBL-2H3 cells): selectively inhibits the activation of JNK
influence on activated site-specific phosphorylation of ERKs [8]: no influence
